Counter-ions that a name gives are not always drawn.
How the values were obtained:
[1] = test system: OE33P radio-sensitive oesophageal adenocarcinoma cells; experiment: Quantification of glycolysis (ECAR, Seahorse), OE33P; assay type: cell-based, human; details: 10 μM, 24 hours
Protocol: (§1) OE33P radio-sensitive and OE33R radio-resistant oesophageal adenocarcinoma cells were used to test the effects of compounds 11B HCl, 11B CC11 HCl, 11B CC16 HCl, 11B 471 and 11B 268 on glycolysis. Cells were maintained in RPMI media supplemented with 10% foetal calf serum, penicillin (100 U/ml) and streptomycin (100 μg/ml). A total of 11,000 or 13,000 cells, in 100 μl media, were seeded per well in 24 well plates and left to incubate for 24 hours, with an additional 150 μl media added after 5 hours. The media was replaced with solutions containing 10 μM of 11B HCl, 11B CC1 HCl, 11B CC16 HCl, 11B 471, 11B 268 or fresh media as a control. Each drug had 6 replicates. After 24 hours of treatment, media was replaced with modified DMEM supplemented with 0.5 mM glucose. Rates of glycolysis were determined using Seahorse Biosciences metabolism technology. The media was disposed and the cells washed with PBS. The cells were fixed with 1% glutaraldehyde for 15 minutes and then stained with crystal violet for 30 minutes. The plates were blotted and dried overnight. The cells were resuspended with 1% TritonX-100 and shaken for 15 minutes. The absorbance was read on a spectrophotometer at 590 nm. Rates of glycolysis were then normalised to cell number.
as §1, with “radiosensitive” for “radio-sensitive and OE33R radio-resistant”, “the compound 11B_ZHCl” for “compounds 11B HCl, 11B CC11 HCl, 11B CC16 HCl, 11B 471 and 11B 268”, “11,000” for “11,000 or 13,000”, “11B_ZHCl” for “11B HCl, 11B CC1 HCl, 11B CC16 HCl, 11B 471, 11B 268”, “treatment” for “drug”, “number. No changes in ECAR were detected in OE33R treated cells.” for “number.”

[2] = test system: OE33R radio-resistant oesophageal adenocarcinoma cells; experiment: Quantification of glycolysis (ECAR, Seahorse), OE33R; assay type: cell-based, human; details: 10 μM, 24 hours
Protocol: as §1
OE33P radiosensitive oesophageal adenocarcinoma cells were used to test the effects of the compound 11B_ZHCl on glycolysis. Cells were maintained in RPMI media supplemented with 10% foetal calf serum, penicillin (100 U/ml) and streptomycin (100 μg/ml). A total of 11,000 cells, in 100 μl media, were seeded per well in 24 well plates and left to incubate for 24 hours, with an additional 150 μl media added after 5 hours. The media was replaced with solutions containing 10 μM of 11B_ZHCl or fresh media as a control. Each treatment had 6 replicates. After 24 hours of treatment, media was replaced with modified DMEM supplemented with 0.5 mM glucose. Rates of glycolysis were determined using Seahorse Biosciences metabolism technology. […] The absorbance was read on a spectrophotometer at 590 nm. […] No changes in ECAR were detected in OE33R treated cells.

[3] = test system: OE33R radio-resistant oesophageal adenocarcinoma cells; experiment: Surviving fraction (colony formation), OE33R; assay type: cell-based, human; details: 10 μM, 24 hours
Protocol: (§2) OE33P radio-sensitive and OE33R radio-resistant oesophageal adenocarcinoma cells were used to test the effects of the compounds 11B HCl and 11B CC11 HCl on cell survival. Cells were maintained in RPMI media supplemented with 10% foetal calf serum, penicillin (100 U/ml) and streptomycin (100 μg/ml). Cells were seeded in 6 well plates and left to incubate for 24 hours. The media was replaced with solutions containing 10 μM of 11B HCl, 11B CC11 HCl or fresh media as a control. After 24 hours of treatment, media was replaced. When control colonies had grown sufficiently large, the media was disposed and the cells washed with PBS. The cells were fixed with methanol and stained with crystal violet. The surviving fraction, the ability of the cells to form colonies was then determined.
as §2, with “replaced and cells were subjected to 2Gy radiation.” for “replaced.”, “Surviving” for “The surviving”
as §2, with “hours. The cells were subjected to 2Gy irradiation and the media was” for “hours. The media was”, “crystal violet. Surviving fraction, the” for “crystal violet. The surviving fraction, the”

[4] = test system: zebrafish hyaloid vasculature; experiment: Quantification of primary hyaloid vasculature branch number in Tg(fli1:EGFP) zebrafish; assay type: in vivo; details: for dose-dependent inhibition of development of hyaloid vessels: decreasing doses 20, 10, 7.5, 5, 2.5, 1 and/or 0.5 μM, HCl salt; for inhibition of developmental angiogenesis of the hyaloid vasculature (number of primary hyaloid vessels): typically 10 μM or 5 μM, from 24 hpf, vs DMSO control
Procedure, shortened: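 Tg(fli1:EGFP) larvae raised at 28° C on a 14/10 hr light cycle, euthanised and fixed overnight in 4% PFA at 4° C. Dissected lenses imaged by epi-fluorescence; hyaloid vessel patterning compared with DMSO controls and the archetypal pattern.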

[5] = treated following 2Gy irradiation
[6] = treated prior to 2Gy irradiation

| Compound | extracellular acidification rate (ECAR), a measure of glycolysis [1] | extracellular acidification rate (ECAR), a measure of glycolysis [2] | surviving fraction ([3]; no irradiation) | surviving fraction [3, 5] | surviving fraction [3, 6] | dose-dependent inhibition of development of hyaloid vessels [4] | dose-dependent inhibition of development of hyaloid vessels ([4]; listed as 11B-CC11 HCl) | inhibition of developmental angiogenesis of the hyaloid vasculature (number of primary hyaloid vessels) [4] | extracellular acidification rate (ECAR), a measure of glycolysis ([1]; HCl salt) | extracellular acidification rate (ECAR), a measure of glycolysis ([1]; listed as 11B_ZHCl, HCl salt) |
| --- | --- | --- | --- | --- | --- | --- | --- | --- | --- | --- |
| Oc1ccccc1/C=C/c1ccc2ccccc2n1 [11B HCl] | significantly reduce | significantly reduce | significantly reduce | significantly reduce | significantly reduce | – | – | – | – | – |
| C/C(=C\c1ccccc1O)c1ccc2ccccc2n1.Cl [Compound 11B_CC11_HCl, (E)-2-(2-Quinolin-2-yl-propenyl)-phenol HCl salt] | significantly reduce | – | significantly reduce | significantly reduce | significantly reduce | inhibit developmental angiogenesis of zebrafish hyaloid vasculature in a dose-dependent statistically significant manner | dose-dependent effect | inhibit developmental angiogenesis of the zebrafish hyaloid vasculature in a statistically significant manner | – | – |
| Cl.Oc1ccccc1/C=C\c1ccc2ccccc2n1 [Compound 11B_Z_HCl, (Z)-2-(2-(Quinolin-2-yl)vinyl) phenol HCl salt] | – | No changes | – | – | – | – | – | inhibit developmental angiogenesis of the zebrafish hyaloid vasculature in a statistically significant manner | significantly reduces | Significantly Reduces |

Source: patent publication US9815788B2, “Anti-angiogenic compounds” (University College Dublin National University of Ireland, …, priority 2012, dated 2017)
